# Laboratory results as given in patent publication US10039839B2, “Compounds that participate in cooperative binding and uses thereof” (Warp Drive Bio, Inc., priority 2015, dated 2018).
# Square brackets hold non-standard residues; d marks the D form. Peptide text beside a SMILES is read from it. MeBmt = C/C=C/C[C@@H](C)[C@@H](O)[C@H](NC)C(=O)O; NMeY = CN[C@@H](Cc1ccc(O)cc1)C(=O)O; NMeT = CN[C@H](C(=O)O)[C@@H](C)O; NMeL = CN[C@@H](CC(C)C)C(=O)O; Tle = CC(C)(C)[C@H](N)C(=O)O; NMeNva = CCC[C@H](NC)C(=O)O; NMeV = CN[C@H](C(=O)O)C(C)C; NMeA = CN[C@@H](C)C(=O)O; dNMeA = CN[C@H](C)C(=O)O; Abu = CC[C@H](N)C(=O)O; Sar = CNCC(=O)O
# Molecular target: T1, Cyclophilin A (Homo sapiens, UniProt P62937)
# T1 construct: made in house
# T1 sequence (P62937 whole entry, species assumed): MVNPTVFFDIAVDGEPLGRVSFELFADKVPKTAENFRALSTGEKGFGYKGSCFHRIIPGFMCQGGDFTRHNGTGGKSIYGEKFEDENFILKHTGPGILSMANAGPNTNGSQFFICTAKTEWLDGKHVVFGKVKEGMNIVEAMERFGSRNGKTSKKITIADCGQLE
# Experiment: biochemical
# Assay type: binding
# Conditions: not given
# Description: This protocol utilizes Perkin Elmers AlphaLISA technology platform to detect cyclosporine analogues by measuring the inhibition of binding of biotinylated Cyclosporin A to FLAG tagged Cyclophilin A.
# Add 20 uL of 6 nM Biotinylated CsA working stock to each well of the 96-well plate. Add 1 uL of test compound (100% DMSO) to each well of the plate using the Janus MTD head and P20 tips (except control wells). Add 1 uL of DMSO to negative control wells and 1 uL of 500 uM Cyclosporin A solution to positive control wells. In the dark, add 20 uL of combined Donor/Acceptor beads to each well. Incubate in the dark for 30 minutes at room temperature. […] Incubate in the dark for 60 minutes at room temperature.
row,% inhibition of CsA binding to Cyclophilin A [%],SMILES
1,95.71,C/C=C/C[C@@H](C)[C@@H](O)[C@H]1C(=O)N[C@@H](CC)C(=O)N(C)CC(=O)N(C)[C@H](C)C(=O)N[C@@H](C(C)C)C(=O)N(C)[C@@H](CC(C)C)C(=O)N[C@@H](CC(C)C)C(=O)N[C@H](C)C(=O)N(C)[C@@H](CC(C)C)C(=O)N(C)[C@@H](CC(C)C)C(=O)N(C)[C@@H](C(C)C)C(=O)N1C [C47] (cyclo([MeBmt][Abu][Sar][dNMeA]V[NMeL]L[dA][NMeL][NMeL][NMeV]))
2,96.12,C/C=C/C[C@@H](C)[C@@H](O)[C@H]1C(=O)N[C@@H](CC)C(=O)N(C)CC(=O)N(C)[C@@H]([C@@H](C)O)C(=O)N[C@@H](C(C)(C)C)C(=O)N(C)[C@@H](C)C(=O)N[C@@H](CC(C)C)C(=O)N[C@H](C)C(=O)N(C)[C@@H](CC(C)C)C(=O)N(C)[C@@H](CC(C)C)C(=O)N(C)[C@@H](C(C)C)C(=O)N1C [C75] (cyclo([MeBmt][Abu][Sar][NMeT][Tle][NMeA]L[dA][NMeL][NMeL][NMeV]))
3,99.56,C/C=C/C[C@@H](C)[C@@H](O)[C@H]1C(=O)N[C@@H](CC)C(=O)N(C)CC(=O)N(C)[C@@H](C(C)C)C(=O)N[C@@H](C(C)(C)C)C(=O)N(C)[C@@H](C)C(=O)N[C@@H](CC(C)C)C(=O)N[C@H](C)C(=O)N(C)[C@@H](CC(C)C)C(=O)N(C)[C@@H](CC(C)C)C(=O)N(C)[C@@H](C(C)C)C(=O)N1C [C77] (cyclo([MeBmt][Abu][Sar][NMeV][Tle][NMeA]L[dA][NMeL][NMeL][NMeV]))
4,99.35,C/C=C/C[C@@H](C)[C@@H](O)[C@H]1C(=O)N[C@@H](CC)C(=O)N(C)CC(=O)N(C)[C@H](C)C(=O)N[C@@H](C(C)C)C(=O)N(C)[C@@H](C)C(=O)N[C@@H](CC(C)C)C(=O)N[C@H](C)C(=O)N(C)[C@@H](CC(C)C)C(=O)N(C)[C@@H](CC(C)C)C(=O)N(C)[C@@H](C(C)C)C(=O)N1C [C83] (cyclo([MeBmt][Abu][Sar][dNMeA]V[NMeA]L[dA][NMeL][NMeL][NMeV]))
5,95.72,C/C=C/C[C@@H](C)[C@@H](O)[C@H]1C(=O)N[C@@H](CC)C(=O)N(C)CC(=O)N(C)[C@@H](Cc2ccc(O)cc2)C(=O)N[C@@H](C(C)C)C(=O)N(C)[C@@H](CC(C)C)C(=O)N[C@@H](CC)C(=O)N[C@H](C)C(=O)N(C)[C@@H](CC(C)C)C(=O)N(C)[C@@H](CC(C)C)C(=O)N(C)[C@@H](C(C)C)C(=O)N1C [C100] (cyclo([Abu][Sar][NMeY]V[NMeL][Abu][dA][NMeL][NMeL][NMeV][MeBmt]))
6,99.30,C/C=C/C[C@@H](C)[C@@H](O)[C@H]1C(=O)N[C@@H](CC)C(=O)N(C)CC(=O)N(C)[C@@H](CCC)C(=O)N[C@@H](C(C)C)C(=O)N(C)[C@@H](CC(C)C)C(=O)N[C@@H](CC)C(=O)N[C@H](C)C(=O)N(C)[C@@H](CC(C)C)C(=O)N(C)[C@@H](CC(C)C)C(=O)N(C)[C@@H](C(C)C)C(=O)N1C [C102] (cyclo([Abu][Sar][NMeNva]V[NMeL][Abu][dA][NMeL][NMeL][NMeV][MeBmt]))

# Same assay, conditions: read-out: IC50 value of CsA binding to Cyclophilin A
row,IC50 [µM],SMILES
1,< 2,C/C=C/C[C@@H](C)[C@@H](O)[C@H]1C(=O)N[C@@H](CC)C(=O)N(C)CC(=O)N(C)[C@H](C)C(=O)N[C@@H](C(C)C)C(=O)N(C)[C@@H](CC(C)C)C(=O)N[C@@H](CC(C)C)C(=O)N[C@H](C)C(=O)N(C)[C@@H](CC(C)C)C(=O)N(C)[C@@H](CC(C)C)C(=O)N(C)[C@@H](C(C)C)C(=O)N1C [C47] (cyclo([MeBmt][Abu][Sar][dNMeA]V[NMeL]L[dA][NMeL][NMeL][NMeV]))

# Test system: HeLa-FKBP12 cells
# Experiment: Biosensor cell permeability assay, FKBP binding compounds
# Assay type: cell-based
# Conditions: 72 hrs
# Description: This protocol utilizes a modified FKBP or cyclophilin destabilizing mutant to determine the bioactivity of FKBP binding compounds or cyclophilin binding compounds in whole cell assay.
# Plate HeLa-FKBP12 cells (for FKBP binding compounds) or HeLa-Cyclophilin A cells (for cyclophilin binding compounds) and seed overnight at 5 k/well (approximately ˜18 hrs.). Using a multi-channel pipet, take out the old media and add ˜125 ul of new media with compounds. Compounds are diluted using DMEM without Phenol Red, 10% FBS, 1× Sodium Pyruvate, 1× Glutamax. Add 125 ul of media with compound per well. Cells are treated with compounds at concentration: 30, 10, 3.33, 1.11, 0.37, 0.12, 0.04 and 0.013 uM. Time points are taken at 72 hrs and plate read using plate reader with excitation/emission: 575/620.
# Cell binding/permeability is calculated in fold-change (Total RFU of treated samples/total RFU of DMSO treated samples or total RFU above background (Total RFU minus total RFU of DMSO treated samples).
row,IC50 [µM],SMILES
1,< 1,CC[C@H](Cc1ccccc1)[C@@H]1/C=C/C/C=C/C[C@@H](C)[C@H](O)[C@@H](C)[C@@H]2CC[C@@H](C)C(=O)C(O)(O2)C(=O)N2CCC[C@H]2C(=O)O1 [F4]
2,< 1,CC[C@H](Cc1cccc(O)c1)[C@@H]1/C=C/C/C=C/C[C@@H](C)[C@H](O)[C@@H](C)[C@@H]2CC[C@@H](C)C(=O)C(O)(O2)C(=O)N2CCCC[C@H]2C(=O)O1 [F20]
3,< 1,CC[C@H](Cc1cccc(O)c1)[C@@H]1/C=C/C=C/CC[C@@H](C)[C@H](O)[C@@H](C)[C@@H]2CC[C@@H](C)[C@@](O)(O2)C(=O)C(=O)N2CCCC[C@H]2C(=O)O1 [F21]

row,SMILES,IC50 [µM]
1,CC[C@H](Cc1ccccc1)[C@@H]1/C=C/C=C/CC[C@@H](C)C(=O)[C@@H](C)[C@@H]2CC[C@@H](C)[C@@](O)(O2)C(=O)C(=O)N2CCCC[C@H]2C(=O)O1 [F22],> 1
